Experimental data from patent US20260216292A1, “CXCL8 INHIBITORS FOR USE IN THE TREATMENT OF OCULAR MUCOUS MEMBRANE PEMPHIGOID AND/OR ORAL MUCOUS MEMBRANE PEMPHIGOID” (DOMPE' FARMACEUTICI SPA, priority 2023, published 2026).
“Also recorded” adds a separate entry of the source.

What was measured:
Type in all cases: in vivo, C57Bl/6 (B6) mice
[1] = system: experimental MMP mouse model (anti-mLAMα3 IgG induced); assay: Conjunctival lesions by lesional histopathology (H&E) of palpebral conjunctiva in antibody transfer-induced experimental MMP; conditions: for overall therapeutic effect in diseased mice: administered topically twice a day, days 12 and 28; for subepithelial inflammatory infiltrate, semi-quantification of H&E stained palpebral conjunctival biopsies / palpebral conjunctival split formation (conjunctiva score): vs vehicle; for palpebral conjunctival split formation (conjunctiva score): score 0-4
Description: (§1) Adult C57Bl/6 (B6) mice (male and female) aged at least 6 weeks old were used. Animals were maintained on a 12-h light-dark cycle at the animal facility of the University of Lübeck. Mice were held under SPF conditions and fed acidified drinking water and standard chow ad libitum. Protocols were approved by the Animal Rights Commission of the Ministry of Agriculture and Environment, Schleswig-Holstein.
For production of anti-mLAMα3 IgG, New Zealand White rabbits were immunized subcutaneously with […] of an equimolar mixture of the 2 purified recombinant proteins (aa1656-1985 and aa2756-3330 of murine Laminin alpha3 chain, produced in E. coli as disclosed by Heppe, E. N., et al., J Invest Dermatol, 2017, 137, 1709-1718) suspended in complete Freund's adjuvant. The animals were boosted twice with the same protein preparation in incomplete Freund's adjuvant. Immune sera were obtained at regular intervals and characterized by IF microscopy on cryosections of murine skin. IgG from rabbits immunized with recombinant fragments of murine mLAMα3 and from non-immunized rabbits was purified by affinity chromatography using protein G sepharose affinity chromatography (Amersham Biosciences, Heidelberg, Germany). Reactivity of IgG fractions was analyzed by IF microscopy on murine skin (Sitaru et al., J Immunol 2006, 177: 3461-8). In addition, each batch of anti-mLAMα3 IgG was characterized in vivo regarding its capability to induce experimental MMP in C57Bl/6 (B6) mice (WP1.1). From this experiment, the amount of antibodies that leads to moderate experimental MMP was determined; i.e. the amount needed to induce disease development with moderate involvement of the conjunctiva (i.e. score of 1-3 in a maximum of 50% of the animals on day 12) in the model of antibody transfer-induced MMP. For this purpose, the intensity of the separation of the conjunctiva is determined histologically. The body surface area affected should be between 3-8% at the concentration used. The conjunctiva score was set histologically post-mortem and was in a range of 0-4, depending on the intensity of the separation of the conjunctiva. The amount needed was determined to be 5 mg/injection of anti-mLAMα3 IgG.
To test DF2156A at 0.5% and reparixin at 0.5% effects on the severity of conjunctival involvement in experimental MMP, the disease was induced by repetitive subcutaneous (s.c.) injections of anti-mLAMα3 IgG (5 mg/mouse) on alternating days (0, 2, ( . . . ) and 10) into adult B6 mice, which were treated throughout the entire experiment twice a day via eyedrops. Three eyedrops per eye were given twice daily. Mice treated with solvent via eyedrops or methylprednisolone (MP) via i.p. injections were used as treatment controls. Mice s.c. injected with IgG isolated from normal rabbit serum (NR IgG) served as negative control.
The primary endpoint of this experiment was the extent of conjunctival lesions as determined by lesional histopathology (H&E stain) on day 12 and 28 following an established scoring system (Heppe, E. N., et al., J Invest Dermatol, 2017, 137, 1709-1718). In detail, biopsies from the palpebral conjunctiva were taken on day 12 and day 28 and paraffine embedded. 4.5 μm thick sections from 3 different depths of the biopsies were cut in triplicate and H&E stained for further quantification. Among the H&E stained histologies those with a palpebral conjunctival-epithelium with more than 1000 μm were used for quantification. For this score the length of the split formation (split=epithelia separation from the underlying dermal structures) is measured. The split length is categorized to a score of 0-4 with no split=0, less than 100 μm=1, less than 200 μm=2, less than 300 μm=3, more or equal 300 μm=4. Splits that occurred at the end of the tissue were excluded, because they were most likely to be of artificial nature due to the cutting. The longest split out of 9 possible sections is decisive for the final score. […]

[2] = system: experimental MMP mouse model (anti-mLAMα3 IgG induced); assay: Macroscopic affected eye area in experimental MMP; conditions: DF2156A topical eyedrops, MP i.p. once daily
Description: as §1
For production of anti-mLAMα3 IgG, New Zealand White rabbits were immunized subcutaneously with […] of an equimolar mixture of the 2 purified recombinant proteins (aa1656-1985 and aa2756-3330 of murine Laminin alpha3 chain, produced in E. coli as disclosed by Heppe, E. N., et al., J Invest Dermatol, 2017, 137, 1709-1718) suspended in complete Freund's adjuvant. […] Reactivity of IgG fractions was analyzed by IF microscopy on murine skin (Sitaru et al., J Immunol 2006, 177: 3461-8). […] From this experiment, the amount of antibodies that leads to moderate experimental MMP was determined; i.e. the amount needed to induce disease development with moderate involvement of the conjunctiva (i.e. score of 1-3 in a maximum of 50% of the animals on day 12) in the model of antibody transfer-induced MMP. For this purpose, the intensity of the separation of the conjunctiva is determined histologically. […] The amount needed was determined to be 5 mg/injection of anti-mLAMα3 IgG. […]

[3] = system: experimental MMP mouse model (anti-mLAMα3 IgG induced); assay: Severity of oral lesions by endoscopy (oral score) in experimental MMP; conditions: day 28; vs vehicle; DF2156A eyedrops, MP i.p.; maximum score 4
[4] = day 12, 0.5% eyedrops twice daily
[5] = day 28, 0.5% eyedrops twice daily
[6] = day 28, 0.5% eyedrops twice daily, listed as Reparixin

SMILES | overall therapeutic effect in diseased mice [1] | subepithelial inflammatory infiltrate, semi-quantification of H&E stained palpebral conjunctival biopsies [1, 4] | subepithelial inflammatory infiltrate, semi-quantification of H&E stained palpebral conjunctival biopsies [1, 5] | subepithelial inflammatory infiltrate, semi-quantification of H&E stained palpebral conjunctival biopsies [1, 6] | palpebral conjunctival split formation (conjunctiva score) [1, 5] | palpebral conjunctival split formation (conjunctiva score) [1, 6] | palpebral conjunctival split formation (conjunctiva score) ([1]; day 12, DF2156A 0.5% or reparixin 0.5% eyedrops twice daily) | extent of macroscopic affected eye area ([2]; day 12) | extent of affected eye area (AUC over 28 days) ([2]; day 28) | severity of oral lesions (oral score) [3]
CC(C)Cc1ccc([C@@H](C)C(=O)NS(C)(=O)=O)cc1 [reparixin, R-(−)-2-(4-isobutylphenyl)propionyl methansulfonamide] | overall benefit; also recorded: slower onset of the therapeutic effect | reduced | significantly decreased | reduced | significant reduction | reduced |  |  |  | 
C[C@@H](C(=O)NS(C)(=O)=O)c1ccc(OS(=O)(=O)C(F)(F)F)cc1 [DF2156A, R(−)-2-[(4-trifluoromethanesulfonyloxy)phenyl]-N-methanesulfonyl propionamide] | overall benefit | reduced | decreased; also recorded: improvement |  | significant reduction; also recorded: improvement |  | significant reduction; also recorded: improvement | reduction | reduction | decreased
